*1 amine or outer side, *2 acyl side, *3 side chain or, on linkers, in order; H or OH if unused. Where a SMILES comes first, the peptide text is derived from it. Bridges are numbered along the chain shown (N, C = ends). [ ]: non-standard residue; d: D form. The star is where a group is joined. X3 = O=C(O)CN1CCN(CC(=O)O)CCN(CC(=O)NCCCOCCOCCOCCCN*)CCN(CC(=O)O)CC1; DOTA = O=C(O)CN1CCN(CC(=O)O)CCN(CC(=O)*)CCN(CC(=O)O)CC1; Trp(5-Br) = N[C@@H](Cc1c[nH]c2ccc(Br)cc12)C(=O)O; Trp(5-Cl) = N[C@@H](Cc1c[nH]c2ccc(Cl)cc12)C(=O)O; Pyridine(2,6-diCH2) = c1cc(C[*:1])nc(C[*:2])c1; Trp(6-F) = N[C@@H](Cc1c[nH]c2cc(F)ccc12)C(=O)O; Pro(4R-NH2) = N[C@H]1CN[C@H](C(=O)O)C1; Pro(3S-OH) = O=C(O)[C@H]1NCC[C@@H]1O; X7 = c1cc(CSCCN[*:2])cc(C[*:1])c1; Hyp = O=C(O)[C@@H]1C[C@@H](O)CN1; Suc = O=C(CCC(=O)[*:2])[*:1]; hLeu = CC(C)CC[C@H](N)C(=O)O; αMeS = C[C@](N)(CO)C(=O)O; Api = NC1(C(=O)O)CCNCC1; Thp = NC1(C(=O)O)CCOCC1; Aib = CC(C)(N)C(=O)O; Sar = CNCC(=O)O
Target: T1, GIPR (CHO-K1-hGIPR cells) (Homo sapiens, UniProt P48546)
T1 construct: host or cells: CHO-K1
T1 sequence (P48546 22-466): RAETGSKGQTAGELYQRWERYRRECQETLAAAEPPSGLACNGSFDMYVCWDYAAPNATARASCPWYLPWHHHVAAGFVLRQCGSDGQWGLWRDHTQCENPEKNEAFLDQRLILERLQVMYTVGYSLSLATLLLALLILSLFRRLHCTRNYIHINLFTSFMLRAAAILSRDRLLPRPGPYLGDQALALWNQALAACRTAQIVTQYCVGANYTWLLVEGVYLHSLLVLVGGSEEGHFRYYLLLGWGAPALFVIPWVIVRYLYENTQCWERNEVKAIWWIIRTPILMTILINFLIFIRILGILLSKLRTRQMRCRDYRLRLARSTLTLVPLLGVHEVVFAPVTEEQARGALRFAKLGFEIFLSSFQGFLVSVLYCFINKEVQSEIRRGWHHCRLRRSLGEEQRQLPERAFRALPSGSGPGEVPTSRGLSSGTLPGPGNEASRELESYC
Experiment: FACS binding assay
Conditions: competition with 20 nM GIP-057, 4° C., 1 hour, read-out: pIC50 Category (converted)
Method in brief: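 Steps: detach CHO-K1-hGIPR cells (Accutase); wash in PBS/1% FCS; adjust to 500.000 cells per mL; wash ice-cold; incubate APC-streptavidin 1 μg/mL, 30 min on ice; wash twice; acquire on flow cytometer; fit MFI-concentration data with a four-parameter logistic model.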

| Structure (SMILES) | IC50 [nM] |
| --- | --- |
| CC[C@H](C)[C@@H]1NC(=O)[C@H](CC(C)C)NC(=O)C(C)(C)NC(=O)[C@@H](NC(=O)[C@@H](CC(C)C)NC(=O)[C@H](CCC(=O)O)NC(=O)[C@@H]2C[C@@H](O)CN2C(=O)[C@H](Cc2c[nH]c3ccc(Cl)cc23)NC(=O)[C@H](Cc2c[nH]c3ccccc23)NC(=O)[C@H](CC(=O)O)NC(=O)CCC(=O)NCCCOCCOCCOCCCNC(=O)CN2CCN(CC(=O)O)CCN(CC(=O)O)CCN(CC(=O)O)CC2)CSCc2cccc(c2)CSCCNC1=O [GIP-094, DOTA-Ttds-Asp-Trp-5Clw-Hyp-Glu-leu-[Cys(3MeBn)-Aib-Leu-Ile-AET]] ({X3-Suc}-DW[Trp(5-Cl)][Hyp]E[dL]C[Aib]LI; linker 7-C via X7) | < 10 |
| CC[C@H](C)[C@@H]1NC(=O)[C@H](CC(C)C)NC(=O)C(C)(C)NC(=O)[C@@H](NC(=O)[C@@H](CC(C)C)NC(=O)[C@H](CCC(=O)O)NC(=O)[C@@H]2CCCN2C(=O)[C@H](Cc2c[nH]c3ccc(Cl)cc23)NC(=O)[C@H](Cc2c[nH]c3ccccc23)NC(=O)[C@H](CC(=O)O)NC(=O)CCC(=O)NCCCOCCOCCOCCCNC(=O)CN2CCN(CC(=O)O)CCN(CC(=O)O)CCN(CC(=O)O)CC2)CNCc2cccc(c2)C[S+]([O-])CCNC1=O (stereo partly drawn) [GIP-098, DOTA-Ttds-Asp-Trp-5Clw-Pro-Glu-leu-[Dap(3MeBn)-Aib-Leu-Ile-AETO]] | < 10 |
| CC[C@H](C)[C@@H]1NC(=O)[C@H](CCC(C)C)NC(=O)C(C)(C)NC(=O)[C@@H](NC(=O)[C@@H](CC(C)C)NC(=O)[C@H](CCC(=O)O)NC(=O)[C@@H]2CCCN2C(=O)[C@H](Cc2c[nH]c3ccc(Cl)cc23)NC(=O)[C@H](Cc2c[nH]c3ccccc23)NC(=O)[C@H](CC(=O)O)NC(=O)CCC(=O)NCCCOCCOCCOCCCNC(=O)CN2CCN(CC(=O)O)CCN(CC(=O)O)CCN(CC(=O)O)CC2)CSCc2cccc(c2)CSCCNC1=O [GIP-099, DOTA-Ttds-Asp-Trp-5Clw-Pro-Glu-leu-[Cys(3MeBn)-Aib-Hle-Ile-AET]] ({X3-Suc}-DW[Trp(5-Cl)]PE[dL]C[Aib][hLeu]I; linker 7-C via X7) | < 10 |
| CC[C@H](C)[C@@H]1NC(=O)[C@H](CC(C)C)NC(=O)C(C)(C)NC(=O)[C@@H](NC(=O)[C@@H](CC(C)C)NC(=O)[C@H](CCC(=O)O)NC(=O)CN(C)C(=O)[C@H](Cc2c[nH]c3ccc(Cl)cc23)NC(=O)[C@H](Cc2c[nH]c3ccccc23)NC(=O)[C@H](CC(=O)O)NC(=O)CCC(=O)NCCCOCCOCCOCCCNC(=O)CN2CCN(CC(=O)O)CCN(CC(=O)O)CCN(CC(=O)O)CC2)CSCc2cccc(c2)CSCCNC1=O [GIP-100, DOTA-Ttds-Asp-Trp-5Clw-Nmg-Glu-leu-[Cys(3MeBn)-Aib-Leu-Ile-AET]] ({X3-Suc}-DW[Trp(5-Cl)][Sar]E[dL]C[Aib]LI; linker 7-C via X7) | < 10 |
| CC[C@H](C)[C@@H]1NC(=O)[C@H](CC(C)C)NC(=O)[C@](C)(CO)NC(=O)[C@@H](NC(=O)[C@@H](CC(C)C)NC(=O)[C@H](CCC(=O)O)NC(=O)[C@@H]2CCCN2C(=O)[C@H](Cc2c[nH]c3ccc(Cl)cc23)NC(=O)[C@H](Cc2c[nH]c3ccccc23)NC(=O)[C@H](CC(=O)O)NC(=O)CCC(=O)NCCCOCCOCCOCCCNC(=O)CN2CCN(CC(=O)O)CCN(CC(=O)O)CCN(CC(=O)O)CC2)CSCc2cccc(c2)CSCCNC1=O [GIP-101, DOTA-Ttds-Asp-Trp-5Clw-Pro-Glu-leu-[Cys(3MeBn)-Ams-Leu-Ile-AET]] ({X3-Suc}-DW[Trp(5-Cl)]PE[dL]C[αMeS]LI; linker 7-C via X7) | < 10 |
| CC[C@H](C)[C@@H]1NC(=O)[C@H](CC(C)C)NC(=O)C(C)(C)NC(=O)[C@@H](NC(=O)[C@@H](CC(C)C)NC(=O)[C@H](CCC(=O)O)NC(=O)[C@@H]2[C@@H](O)CCN2C(=O)[C@H](Cc2c[nH]c3ccc(Cl)cc23)NC(=O)[C@H](Cc2c[nH]c3ccccc23)NC(=O)[C@H](CC(=O)O)NC(=O)CCC(=O)NCCCOCCOCCOCCCNC(=O)CN2CCN(CC(=O)O)CCN(CC(=O)O)CCN(CC(=O)O)CC2)CSCc2cccc(c2)CSCCNC1=O [GIP-102, DOTA-Ttds-Asp-Trp-5Clw-H3p-Glu-leu-[Cys(3MeBn)-Aib-Leu-Ile-AET]] ({X3-Suc}-DW[Trp(5-Cl)][Pro(3S-OH)]E[dL]C[Aib]LI; linker 7-C via X7) | < 10 |
| CC[C@H](C)[C@@H]1NC(=O)[C@H](CC(C)C)NC(=O)C(C)(C)NC(=O)[C@@H](NC(=O)[C@@H](CC(C)C)NC(=O)[C@H](CCC(=O)O)NC(=O)[C@@H]2CCCN2C(=O)[C@H](Cc2c[nH]c3ccc(Cl)cc23)NC(=O)[C@H](Cc2c[nH]c3cc(F)ccc23)NC(=O)[C@H](CC(=O)O)NC(=O)CCC(=O)NCCCOCCOCCOCCCNC(=O)CN2CCN(CC(=O)O)CCN(CC(=O)O)CCN(CC(=O)O)CC2)CSCc2cccc(c2)CSCCNC1=O [GIP-104, DOTA-Ttds-Asp-6Fw-5Clw-Pro-Glu-leu-[Cys(3MeBn)-Aib-Leu-Ile-AET]] ({X3-Suc}-D[Trp(6-F)][Trp(5-Cl)]PE[dL]C[Aib]LI; linker 7-C via X7) | < 10 |
| CC[C@H](C)[C@@H]1NC(=O)[C@H](CC(C)C)NC(=O)C(C)(C)NC(=O)[C@@H](NC(=O)[C@@H](CC(C)C)NC(=O)[C@H](CCC(=O)O)NC(=O)[C@@H]2CCCN2C(=O)[C@H](Cc2c[nH]c3ccc(Br)cc23)NC(=O)[C@H](Cc2c[nH]c3cc(F)ccc23)NC(=O)[C@H](CC(=O)O)NC(=O)CCC(=O)NCCCOCCOCCOCCCNC(=O)CN2CCN(CC(=O)O)CCN(CC(=O)O)CCN(CC(=O)O)CC2)CSCc2cccc(c2)CSCCNC1=O [GIP-105, DOTA-Ttds-Asp-6Fw-5Brw-Pro-Glu-leu-[Cys(3MeBn)-Aib-Leu-Ile-AET]] ({X3-Suc}-D[Trp(6-F)][Trp(5-Br)]PE[dL]C[Aib]LI; linker 7-C via X7) | < 10 |
| CC[C@H](C)[C@@H]1NC(=O)[C@H](CC(C)C)NC(=O)C2(CCOCC2)NC(=O)[C@@H](NC(=O)[C@@H](CC(C)C)NC(=O)[C@H](CCC(=O)O)NC(=O)[C@@H]2C[C@@H](O)CN2C(=O)[C@H](Cc2c[nH]c3ccc(Cl)cc23)NC(=O)[C@H](Cc2c[nH]c3ccccc23)NC(=O)CCC(=O)O)CSCc2cccc(n2)CSC[C@@H](C(=O)N[C@@H](CCCCNC(=O)CN2CCN(CC(=O)O)CCN(CC(=O)O)CCN(CC(=O)O)CC2)C(N)=O)NC1=O [GIP-115, HO-Succinyl-Trp-5Clw-Hyp-Glu-leu-[Cys(2Lut)-Thp-Leu-Ile-Cys]-Lys(DOTA)-NH2] (Suc-W[Trp(5-Cl)][Hyp]E[dL]C[Thp]LICK(DOTA)-NH2; linker 6-10 via Pyridine(2,6-diCH2)) | < 10 |

Other lines, results leading:

| IC50 [nM] | Structure (SMILES) |
| --- | --- |
| < 10 | CC[C@H](C)[C@@H]1NC(=O)[C@H](CC(C)C)NC(=O)C2(CCOCC2)NC(=O)[C@@H](NC(=O)[C@@H](CC(C)C)NC(=O)[C@H](CCC(=O)O)NC(=O)[C@@H]2C[C@@H](O)CN2C(=O)[C@H](Cc2c[nH]c3ccc(Cl)cc23)NC(=O)[C@H](Cc2c[nH]c3ccccc23)NC(=O)CCC(=O)O)CSCc2cccc(n2)CSC[C@@H](C(=O)N[C@H](CCCCNC(=O)CN2CCN(CC(=O)O)CCN(CC(=O)O)CCN(CC(=O)O)CC2)C(N)=O)NC1=O [GIP-116, HO-Succinyl-Trp-5Clw-Hyp-Glu-leu-[Cys(2Lut)-Thp-Leu-Ile-Cys]-lys(DOTA)-NH2] (Suc-W[Trp(5-Cl)][Hyp]E[dL]C[Thp]LIC[dK](DOTA)-NH2; linker 6-10 via Pyridine(2,6-diCH2)) |
| < 10 | CC[C@H](C)[C@@H]1NC(=O)[C@H](CC(C)C)NC(=O)C2(CCN(C(=O)CN3CCN(CC(=O)O)CCN(CC(=O)O)CCN(CC(=O)O)CC3)CC2)NC(=O)[C@@H](NC(=O)[C@@H](CC(C)C)NC(=O)[C@H](CCC(=O)O)NC(=O)[C@@H]2C[C@@H](O)CN2C(=O)[C@H](Cc2c[nH]c3ccc(Cl)cc23)NC(=O)[C@H](Cc2c[nH]c3ccccc23)NC(=O)[C@H](CC(=O)O)NC(C)=O)CSCc2cccc(n2)CSC[C@@H](C(N)=O)NC1=O [GIP-122, Ac-Asp-Trp-5Clw-Hyp-Glu-leu-[Cys(2Lut)-Apc(DOTA)-Leu-Ile-Cys]-NH2] (Ac-DW[Trp(5-Cl)][Hyp]E[dL]C[Api](DOTA)LIC-NH2; linker 7-11 via Pyridine(2,6-diCH2)) |
| < 10 | CC[C@H](C)[C@@H]1NC(=O)[C@H](CC(C)C)NC(=O)C2(CCN(C(=O)CN3CCN(CC(=O)O)CCN(CC(=O)O)CCN(CC(=O)O)CC3)CC2)NC(=O)[C@@H](NC(=O)[C@@H](CC(C)C)NC(=O)[C@H](CCC(=O)O)NC(=O)[C@@H]2C[C@@H](N)CN2C(=O)[C@H](Cc2c[nH]c3ccc(Cl)cc23)NC(=O)[C@H](Cc2c[nH]c3ccccc23)NC(=O)[C@H](CC(=O)O)NC(C)=O)CSCc2cccc(n2)CSC[C@@H](C(N)=O)NC1=O [GIP-123, Ac-Asp-Trp-5Clw-Tap-Glu-leu-[Cys(2Lut)-Apc(DOTA)-Leu-Ile-Cys]-NH2] (Ac-DW[Trp(5-Cl)][Pro(4R-NH2)]E[dL]C[Api](DOTA)LIC-NH2; linker 7-11 via Pyridine(2,6-diCH2)) |
| < 10 | CC[C@H](C)[C@@H]1NC(=O)[C@H](CC(C)C)NC(=O)C2(CCOCC2)NC(=O)[C@@H](NC(=O)[C@@H](CC(C)C)NC(=O)[C@H](CCC(=O)O)NC(=O)[C@@H]2C[C@@H](O)CN2C(=O)[C@H](Cc2c[nH]c3ccc(Cl)cc23)NC(=O)[C@H](Cc2c[nH]c3ccccc23)NC(=O)[C@H](CC(=O)O)NC(=O)CN2CCN(CC(=O)O)CCN(CC(=O)O)CCN(CC(=O)O)CC2)CSCc2cccc(n2)CSC[C@@H](C(N)=O)NC1=O [GIP-125, DOTA-Asp-Trp-5Clw-Hyp-Glu-leu-[Cys(2Lut)-Thp-Leu-Ile-Cys]-NH2] ({DOTA}-DW[Trp(5-Cl)][Hyp]E[dL]C[Thp]LIC-NH2; linker 7-11 via Pyridine(2,6-diCH2)) |

— US20250296971A1, “GASTRIC INHIBITORY PEPTIDE RECEPTOR LIGANDS” (priority 2021, published 2025)
